The values that follow are results of earlier work, collected in the PKSmart pharmacokinetics tables (Seal et al. 2025).

For orientation: Vd means the apparent volume that relates the amount in the body to the concentration in plasma or blood. What is called clearance is the volume of plasma or blood freed of the substance per unit of time. In general, fraction unbound refers to free concentration divided by total concentration. The term half-life denotes the time needed for the level to fall by half in the phase considered.

A short description of series [1]: Lombardo et al. 2013, J Clin Pharmacol 53:178, doi 10.1177/0091270012440282. As to conditions: for Vd / clearance: in vivo, iv; for fraction unbound: plasma.
The nature of series [2]: not given per row; by the article one of three: Lombardo et al. 2013, J Clin Pharmacol 53:178, doi 10.1177/0091270012440282; 'New Drugs at FDA', novel drug approvals for 2021 and 2022 (the article's reference 43); Yap, Li, Chen 2006, J Mol Graph Model 24:383, doi 10.1016. As to conditions: human; for Vd / clearance / half-life: in vivo; for fraction unbound: plasma.

With `[2H]C([2H])([2H])C([2H])([2H])C(C)n1ncn(-c2ccc(N3CCN(c4ccc(OC[C@H]5CO[C@](Cn6cncn6)(c6ccc(Cl)cc6Cl)O5)cc4)CC3)cc2)c1=O` (stereo partly specified), in series [1] (rat), the Vd was 5.07 L/kg, the clearance is 9.16 mL/min/kg and the fraction unbound was 0.9. Moreover, in series [2], the Vd was 7.4 L/kg and the clearance was 5.1 mL/min/kg.
In the case of `COCCOCC(CC1(C(=O)NC2CCC(C(=O)O)CC2)CCCC1)C(=O)O` (stereo unspecified), in series [1] (dog), the clearance was 5.8 mL/min/kg. For the same molecule, in series [1] (rat), the clearance is 15 mL/min/kg and the free fraction (fraction unbound) is 0.23. Moreover, in series [2], the Vd is 0.25 L/kg and the clearance was 2.3 mL/min/kg.
With `O=C(O)C1=C(C[n+]2ccc(CCS(=O)(=O)[O-])cc2)CS[C@@H]2C(NC(=O)C(NC(=O)c3nc[nH]c3C(=O)O)c3ccccc3)C(=O)N12` (stereo partly specified), in series [1] (dog), the Vd is 0.2 L/kg, the clearance was 0.6 mL/min/kg and the free fraction (fraction unbound) was 0.07. Moreover, in series [1] (monkey), the Vd was 0.3 L/kg and the clearance was 3 mL/min/kg. In addition, in series [2], the Vd was 0.21 L/kg and the clearance was 1.7 mL/min/kg.
On to `COc1ccccc1Oc1c(NS(=O)(=O)c2ccc(C(C)C)cn2)nc(-c2ccnc(-c3nn[nH]n3)c2)nc1OCCO`, for which the distribution volume (Vd) in series [1] (monkey) was 0.21 L/kg; in series [1] (rat), 0.27 L/kg. Also, the clearance was 15.6 mL/min/kg in series [1] (monkey), 4.3 mL/min/kg in series [1] (rat) and 9.05 mL/min/kg in series [2].
For `CC(C)(C)S(=O)(=O)CC(Cc1ccccc1)C(=O)NC(Cc1cnc[nH]1)C(=O)N[C@@H](CC1CCCCC1)[C@@H](O)[C@@H](O)C1CC1` (stereo partly specified), the distribution volume (Vd) is 1.52 L/kg in series [1] (dog), 1.7 L/kg in series [1] (monkey), 4.4 L/kg in series [1] (rat) and 0.77 L/kg in series [2]. Further, the clearance in series [1] (dog) is 24.7 mL/min/kg; in series [1] (monkey), 20 mL/min/kg; in series [1] (rat), 119 mL/min/kg; in series [2] it was 11.6 mL/min/kg. Moreover, the figures for the fraction unbound in series [1] (dog), in series [1] (monkey) and in series [1] (rat) were 0.0802, 0.167 and 0.053, respectively.
For the molecule `[H]/N=C(/N=C(N)N)N(C)C`, in series [1] (rat), the volume of distribution (Vd) was 0.54 L/kg and the clearance was 16.8 mL/min/kg. In series [2], the Vd is 0.64 L/kg and the clearance was 7.4 mL/min/kg.
With `C[C@@H](CN(C)C)CN1c2ccccc2CCc2ccccc21`, the clearance in series [2] is 15.9 mL/min/kg.
`CC(C)NC[C@@H](O)c1ccc(NS(C)(=O)=O)cc1`: the clearance in series [2] was 2.14 mL/min/kg.
With `NC(=O)c1ccc2c(c1O)[C@]13CCN(CC4CC4)[C@H](C2)[C@]1(O)CCC(=O)C3`, in series [2], the clearance was 11.1 mL/min/kg, the half-life is 9 h and the fraction unbound is 0.72.
For the molecule `CN1CCN2c3ncccc3Cc3ccccc3[C@@H]2C1`, in series [2], the clearance is 8.25 mL/min/kg.
On to `COCC(=O)Nc1c(I)c(C(=O)NC[C@H](O)CO)c(I)c(C(=O)N(C)C[C@H](O)CO)c1I`, for which the clearance in series [2] is 1.53 mL/min/kg.
Regarding `OC[C@H]1O[C@@H](n2cnc3c2N=CNC[C@@H]3O)CC1O` (stereo partly specified), in series [2], the clearance is 1.68 mL/min/kg.
`COc1cccc2c1C(=O)c1c(O)c3c(c(O)c1C2=O)C[C@](O)(C(=O)CO)C[C@@H]3O[C@@H]1C[C@H](N)[C@@H](O)[C@H](C)O1`: the clearance in series [2] was 16.5 mL/min/kg.
On to `CC(=O)N1CCN(c2ccc(OC[C@@H]3CO[C@](Cn4ccnc4)(c4ccc(Cl)cc4Cl)O3)cc2)CC1`, for which the clearance in series [2] is 8.4 mL/min/kg.
As for `CC(=O)NC(CCS)C(=O)O` (stereo unspecified), the clearance in series [2] is 2.06 mL/min/kg.
`CC(=O)Oc1cc(C(F)(F)F)ccc1C(=O)O`: the clearance in series [2] is 10.7 mL/min/kg.
For the molecule `CCOc1cc(N)c(Cl)cc1C(=O)NC[C@H]1CN(Cc2ccc(F)cc2)CCO1`, the clearance in series [2] was 16.2 mL/min/kg.
Regarding `CC(C(=O)O)c1ccc(-c2ccccc2)c(F)c1` (stereo unspecified), in series [2], the clearance is 0.35 mL/min/kg.
Consider `Nc1nnc(-c2cccc(Cl)c2Cl)c(N)n1`, for which, in series [2], the clearance was 0.51 mL/min/kg.
For `C=C1C[C@@H]2C(CC[C@]3(C)C(=O)CC[C@@H]23)[C@]2(C)C=CC(=O)C=C12` (stereo partly specified), in series [2], the clearance is 145 mL/min/kg.
Take `CC(C)Nc1nc2cc(Cl)c(Cl)cc2n1[C@H]1O[C@@H](CO)[C@H](O)[C@@H]1O`: in series [2], the Vd is 0.46 L/kg, the clearance is 0.79 mL/min/kg, the half-life was 4.32 h and the unbound share (fraction unbound) was 0.02.
As for `C=C[C@H](N)CCC(=O)O`, the clearance in series [2] is 0.74 mL/min/kg.
Consider `CC(C)NC[C@@H](O)COc1ccc(CCOCC2CC2)cc1`, for which the clearance in series [2] is 4.7 mL/min/kg.
On to `O=C(CCC(C(=O)O)N1CCN(C(CCC(=O)NCC(O)CO)C(=O)O)Cc2cccc(n2)CN(C(CCC(=O)NCC(O)CO)C(=O)O)CC1)NCC(O)CO` (stereo unspecified), for which, in series [2], the volume of distribution (Vd) is 0.22 L/kg, the clearance is 1.67 mL/min/kg, the half-life is 1.5 h and the fraction unbound is 0.98.
Regarding `O=C(CO)NCCCOc1cccc(CN2CCCCC2)c1`, the clearance in series [2] is 6.73 mL/min/kg.
In the case of `CCC1(CCC(C)C)C(=O)NC(=O)NC1=O`, the clearance in series [2] was 0.35 mL/min/kg.
`CCOC(=O)C(CCc1ccccc1)NC(C)C(=O)N1Cc2ccccc2CC1C(=O)O` (stereo unspecified): in series [2], the clearance was 26.4 mL/min/kg.
